Results published in patent publication US9271936B2, “Method for forming mesoporous silica nanoparticles, mesoporous silica nanoparticles, and applications thereof” (UNIVERSITY OF MARYLAND, priority 2008, dated 2016).

Legend:
[1] = Loading (uptake) of target material into MSN, UV-Vis spectroscopy; type: physicochemical
[2] = cited from earlier work
[3] = Release of target material from MSN, UV-Vis spectroscopy; settings: after subsequent pH decrease to approximately pH 5.0

- uptake into MSN [1]: approximately 3 ug/mg MSN
- amount released per mg of MSN at equilibrium [3]: about 7.5 ug per mg of MSN
Compound: COc1cccc2c1C(=O)c1c(O)c3c(c(O)c1C2=O)C[C@@](O)(C(=O)CO)C[C@@H]3O[C@H]1C[C@H](N)[C@H](O)[C@H](C)O1 [doxorubicin]
- pKa [2]: ~7
